The text below walks through data of patent US12214036B2, “Combination therapy comprising AXL/MER and PD-1/PD-L1 inhibitors” (Incyte Corporation, priority 2020, dated 2025).

The target of experiment [1] is T1, AXL (Homo sapiens, UniProt P30530).
T1 construct: recombinant phosphorylated forms of the kinase domains for AXL, MER and TYRO3; purchased ThermoFisher Scientific PV4275
T1 sequence (P30530 536-807 limits assumed): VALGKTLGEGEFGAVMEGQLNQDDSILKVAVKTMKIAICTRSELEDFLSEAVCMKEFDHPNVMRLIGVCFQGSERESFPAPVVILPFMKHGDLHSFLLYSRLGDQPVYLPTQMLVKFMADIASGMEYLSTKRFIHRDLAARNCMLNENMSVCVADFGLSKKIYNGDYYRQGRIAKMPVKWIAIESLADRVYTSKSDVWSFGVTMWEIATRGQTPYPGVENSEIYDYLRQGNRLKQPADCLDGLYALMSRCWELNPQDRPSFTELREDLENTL
Kind of experiment: TR-FRET kinase assay, phospho-AXL. Conditions: average from multiple lots, n=18; read-out: IC50 against AXL. In kind it is biochemical. The procedure:
The biochemical potency of Compound 1 to inhibit the enzymatic activity of TAM family members was investigated by TR-FRET assays using recombinant phosphorylated forms of the kinase domains for AXL, MER and TYRO3.
Phospho-AXL (pAXL), cMER and Tyro3 kinase activities were measured by time-resolved fluorescence energy transfer (TR-FRET) assays. Autophosphorylation of AXL was carried out before the kinase assay by incubating the recombinant AXL protein (ThermoFisher Scientific; #PV4275) in buffer containing 50 mM Tris, pH 7.5, 0.2 mg/mL AXL, 5 mM ATP, 20 mM MgCl2 and 2 mM dithiothreitol (DTT) at room temperature for 1 hour. The kinase assay buffer contained 50 mM HEPES, pH 7.5, 10 mM MgCl2, 1 mM EGTA, 0.01% NP-40 and 2 mM DTT. Enzyme solutions of 0.69 nM phospho-AXL, or 0.088 nM cMER (Carna Biosciences, Kobe, Japan; #08-108) or 0.137 nM TYRO3 (Life Technologies, PR7480A) were prepared in assay buffer. […] The plate was incubated for 30 minutes at room temperature, and homogenous time resolved fluorescence (HTRF) signal was measured on a PheraStar FS plate reader (BMG Labtech, Ortenberg, Germany). Percent inhibition was calculated for each concentration, and half maximal inhibitory concentration (IC50) value was generated from curve fitting with GraphPad Prism software (San Diego, Calif.).
A general note: Time-resolved FRET reads energy transfer from a long-lived donor to a nearby acceptor.

The subject of experiment [2] is BAF3 cells expressing MER. Kind of experiment: BAF3-MER cell proliferation assay (CellTiter-Glo). The class given is cell-based. Particulars: Mus musculus, 48 hours, 2% FBS. An excerpt: To evaluate the cellular potency and selectivity within the TAM receptor family, mouse BAF3 cell lines with stable expression of AXL, MER, or TYRO3 were generated.
The cytoplasmic domain of AXL, MER, or TYRO3 fused with dimerization sequence and HA tag was cloned into a pMSCV (murine stem cell virus) vector with a puromycin-resistance marker to generate three constructs individually by electroporation into BAF3 cells. Single clones that were IL-3-independent and puromycin-resistant were selected and characterized. To evaluate effects on BAF3 cell proliferation, 1000 cells/well of BAF3, BAF3-AXL, BAF3 MER, or BAF3-TYRO3 cells were treated in the presence or absence of Compound 1 at various concentrations (10 concentration points with a three-fold dilution factor from the highest concentration of 10 μM) diluted in RPMI-1640 with 2% FBS for 48 hours in a 384-well plate. Cell viability was measured by ATP assay (CellTiter-Glo Assay, Promega, Madison, Wis.) according to the manufacturer's procedure. The data were converted to percent inhibition relative to DMSO control, and IC50 curves were fitted using GraphPad Prism software.
For orientation: ATP-based viability assays read luminescence as a measure of living cells.

The IC50 is the point on the concentration scale where inhibition reaches its midpoint. A word on the GI50: it is the concentration giving 50% growth inhibition.

Turning to `CC(C)C(=O)N1CCC(c2cc(-c3ccc(NC(=O)c4cn(C(C)C)c(=O)n(-c5ccccn5)c4=O)cc3)c3c(N)ncnn23)CC1` [Compound 1, N-(4-(4-Amino-7-(1-isobutyrylpiperidin-4-yl)pyrrolo[1,2-f][1,2,4]triazin-5-yl)phenyl)-1-isopropyl-2,4-dioxo-3-(pyridin-2-yl)-1,2,3,4-tetrahydropyrimidine-5-carboxamide], the IC50 in experiment [1] was 0.61 ± 0.31 nM. For the same molecule, in experiment [2], the GI50 came to 14 ± 4.9 nM.
